Laboratory results as given in patent US12472140B2, “Composition and method for transdermal delivery of cannabidiol (CBD) and tetrahydrocannabinol (THC)” (Ovation Science Inc., priority 2020, dated 2025).

Tests used:
[1] = Release of CBD and THC from the composition, effect of adding surfactant; type: physicochemical; details: for ratio of release of CBD and THC: numerically THC/CBD
Source text: Addition of surfactant can assist in release of CBD and THC from the composition.

Solubility = details: polyvinylpyrrolidone polymers with C16, C20, C30 side chains
[2] = cited from earlier work
[3] = Six-hour Franz Cell study of skin penetration by CBD and THC; details: for penetration of CBD relative to THC: at 6 hours
[4] = oral doses of 15-20 mg; cited from earlier work
[5] = Example 1, penetrant increased from 1% to 3%
[6] = Example 3, terpene penetrant increased from 1% to 3%

| SMILES | release from the composition ([1]; after addition of surfactant) [%] | release from the composition ([1]; before addition of surfactant) [%] | solubility in hydrophobic polymer delivery system / polymer complexes (Solubility) | solubility in aqueous buffers [2] | solubility in organic solvents [2] | penetration of CBD relative to THC ([3]; Example 1, 1:1 CBD:THC formulation) [times] | penetration [3, 5] [%] | penetration of CBD relative to THC ([3]; Example 3, 1:1 CBD:THC formulation) [times] | actual (penetration) weight ratio of CBD:THC ([3]; Example 3, formulated weight ratio 1:1 CBD:THC) | penetration [3, 6] [%] | ratio of release of CBD and THC ([1]; after addition of surfactant) | ratio of release of CBD and THC ([1]; before addition of surfactant) | effect on cancer pain [4] |
| --- | --- | --- | --- | --- | --- | --- | --- | --- | --- | --- | --- | --- | --- |
| C=C(C)[C@@H]1CCC(C)=C[C@H]1c1c(O)cc(CCCCC)cc1O [CBD, cannabidiol] | 30.2 | 4.3 | readily soluble | sparingly soluble | readily soluble | ~4 | 5.8 | ~2 | 1.98 | 5.8 |  |  |  |
| CCCCCc1cc(O)c2c(c1)OC(C)(C)[C@H]1CCC(C)=C[C@H]21 [THC, Δ^9-tetrahydrocannabinol] | 21.7 | 3 | readily soluble | sparingly soluble | readily soluble |  | 3.2 |  |  | 3.2 | 0.72 | 0.7 | decreased cancer pain comparable to 120 mg of codeine |
